What was measured:
Retinal dehydrogenase 2 = molecular target: T1, Retinal dehydrogenase 2 (Homo sapiens, UniProt O94788); experiment: Inhibition of full length human ALDH1A2 using propionaldehyde as substrate preincubated for 30 mins followed by substrate addition and measured after 30 mins in presence of NAD by luminescence microplate reader analysis
T1 sequence (O94788 whole entry): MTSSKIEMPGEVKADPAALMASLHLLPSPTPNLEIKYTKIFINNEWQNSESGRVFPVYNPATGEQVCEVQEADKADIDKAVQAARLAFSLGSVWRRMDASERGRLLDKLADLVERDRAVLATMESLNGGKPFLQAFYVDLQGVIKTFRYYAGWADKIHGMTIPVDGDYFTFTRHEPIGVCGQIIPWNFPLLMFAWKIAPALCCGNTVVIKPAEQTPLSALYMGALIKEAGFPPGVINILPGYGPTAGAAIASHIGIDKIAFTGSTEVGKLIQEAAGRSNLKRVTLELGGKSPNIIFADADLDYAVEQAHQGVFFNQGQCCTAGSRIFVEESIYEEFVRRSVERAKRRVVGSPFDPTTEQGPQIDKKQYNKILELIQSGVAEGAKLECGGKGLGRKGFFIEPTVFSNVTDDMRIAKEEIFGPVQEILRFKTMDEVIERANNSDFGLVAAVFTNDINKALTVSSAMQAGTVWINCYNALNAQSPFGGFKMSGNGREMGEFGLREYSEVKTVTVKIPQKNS

[1] = molecular target: T2, Aldehyde dehydrogenase 1A1 (Homo sapiens, UniProt P00352); experiment: Inhibition of full length human ALDH1A1 using propionaldehyde as substrate preincubated for 30 mins followed by substrate addition and measured after 30 mins in presence of NAD by luminescence microplate reader analysis
T2 sequence (P00352 whole entry): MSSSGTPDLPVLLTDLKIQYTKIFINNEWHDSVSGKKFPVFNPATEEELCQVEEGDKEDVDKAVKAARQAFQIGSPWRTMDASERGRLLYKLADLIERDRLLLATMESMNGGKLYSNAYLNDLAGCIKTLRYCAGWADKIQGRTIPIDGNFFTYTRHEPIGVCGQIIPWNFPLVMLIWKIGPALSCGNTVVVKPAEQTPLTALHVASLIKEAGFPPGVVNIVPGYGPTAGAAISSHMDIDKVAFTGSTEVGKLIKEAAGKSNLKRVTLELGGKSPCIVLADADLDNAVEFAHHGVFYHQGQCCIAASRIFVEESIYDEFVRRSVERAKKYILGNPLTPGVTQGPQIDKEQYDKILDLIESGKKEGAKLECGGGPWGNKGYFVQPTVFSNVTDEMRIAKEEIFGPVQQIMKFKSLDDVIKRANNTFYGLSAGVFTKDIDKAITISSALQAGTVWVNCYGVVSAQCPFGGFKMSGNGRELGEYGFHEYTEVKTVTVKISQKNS

[2] = molecular target: T3, Retinaldehyde dehydrogenase 3 (Homo sapiens, UniProt P47895); experiment: Inhibition of human ALDH1A3 in human WM266-4 cells incubated for 60 mins using BODIPY-aminoacetaldehyde as substrate in presence of ALDEFLUOR assay buffer by Hoechst 33342 staining based cell Insight fluorescent microscopic anlaysis
T3 sequence (P47895 whole entry): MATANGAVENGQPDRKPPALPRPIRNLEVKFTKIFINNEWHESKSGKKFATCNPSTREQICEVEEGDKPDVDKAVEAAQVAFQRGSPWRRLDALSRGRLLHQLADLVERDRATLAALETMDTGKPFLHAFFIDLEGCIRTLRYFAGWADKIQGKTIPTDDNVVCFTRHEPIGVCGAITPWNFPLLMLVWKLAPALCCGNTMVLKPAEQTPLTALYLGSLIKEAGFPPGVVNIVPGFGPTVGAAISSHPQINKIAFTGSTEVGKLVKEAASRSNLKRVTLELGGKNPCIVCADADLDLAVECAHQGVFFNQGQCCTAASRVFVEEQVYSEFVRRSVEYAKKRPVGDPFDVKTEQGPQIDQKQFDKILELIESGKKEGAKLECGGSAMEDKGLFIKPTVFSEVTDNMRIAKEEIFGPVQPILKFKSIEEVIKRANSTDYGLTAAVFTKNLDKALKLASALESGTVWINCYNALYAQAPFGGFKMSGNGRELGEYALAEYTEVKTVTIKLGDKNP

[3] = molecular target: T3, Retinaldehyde dehydrogenase 3; experiment: Inhibition of full length human ALDH1A3 using propionaldehyde as substrate preincubated for 30 mins followed by substrate addition and measured after 30 mins in presence of NAD by luminescence microplate reader analysis
[4] = molecular target: T4, Aldehyde dehydrogenase, mitochondrial (Homo sapiens, UniProt P05091); experiment: Inhibition of full length human ALDH2 using propionaldehyde as substrate preincubated for 30 mins followed by substrate addition and measured after 30 mins in presence of NAD by luminescence microplate reader analysis
T4 sequence (P05091 whole entry): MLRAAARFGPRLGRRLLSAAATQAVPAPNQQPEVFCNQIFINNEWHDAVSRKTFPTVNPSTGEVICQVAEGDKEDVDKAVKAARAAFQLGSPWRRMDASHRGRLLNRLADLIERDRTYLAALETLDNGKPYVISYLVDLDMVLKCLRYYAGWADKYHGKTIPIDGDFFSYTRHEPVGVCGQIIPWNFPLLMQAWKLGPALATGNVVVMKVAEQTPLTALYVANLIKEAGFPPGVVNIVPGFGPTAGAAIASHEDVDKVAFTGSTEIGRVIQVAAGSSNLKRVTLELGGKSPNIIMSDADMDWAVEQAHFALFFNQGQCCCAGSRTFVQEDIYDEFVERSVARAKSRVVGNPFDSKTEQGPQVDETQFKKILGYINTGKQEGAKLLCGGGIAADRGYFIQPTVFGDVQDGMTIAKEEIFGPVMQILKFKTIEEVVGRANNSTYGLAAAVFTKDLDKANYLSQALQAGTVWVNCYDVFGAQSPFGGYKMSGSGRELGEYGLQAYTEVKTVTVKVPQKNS

| Compound | IC50 (Retinal dehydrogenase 2) [nM] | IC50 [1] [nM] | IC50 [2] [nM] | IC50 [3] [nM] | IC50 [4] [nM] |
| --- | --- | --- | --- | --- | --- |
| O=C1CCc2cc(NC(=O)c3sc(N4CCOCC4)nc3-c3cccc(F)c3)ccc2N1 | ≥ 100000 | ≥ 100000 | < 100 | < 100 | ≥ 100000 |
| O=C1CCc2cc(NC(=O)c3sc(N4CC(O)C4)nc3-c3cccc(F)c3)ccc2N1 | ≥ 100000 | ≥ 100000 | < 100 | < 100 | ≥ 100000 |
| O=C1CCc2cc(NC(=O)c3scnc3-c3cccc(F)c3)ccc2N1 | 1000 | ≥ 100000 | < 100 | < 100 | ≥ 100000 |
| O=C1CCc2cc(NC(=O)c3sc(N4CCNCC4)nc3-c3cccc(F)c3)ccc2N1 | 10000 | ≥ 100000 | < 100 | < 100 | ≥ 100000 |

The remaining compounds from weak to strong by IC50 (Retinal dehydrogenase 2), led by results:

| IC50 (Retinal dehydrogenase 2) [nM] | IC50 [1] [nM] | IC50 [2] [nM] | IC50 [3] [nM] | IC50 [4] [nM] | Compound |
| --- | --- | --- | --- | --- | --- |
| 1000 | ≥ 100000 | < 100 | < 100 | ≥ 100000 | CN(C)c1nc(-c2cccc(F)c2)c(C(=O)Nc2ccc3c(c2)CCC(=O)N3)s1 |
| 1000 | ≥ 100000 | < 100 | < 100 | ≥ 100000 | O=C1CCc2cc(NC(=O)c3scnc3-c3ccccc3F)ccc2N1 |
| 100 | ≥ 100000 | < 100 | < 100 | ≥ 100000 | O=C1CCc2cc(OCCN3CCCC3c3cccc(F)c3)ccc2N1 (stereo not given) |
| 100 | ≥ 100000 | < 100 | < 100 | ≥ 100000 | O=C1CCc2cc(OCCN3CCC[C@@H]3c3cccc(F)c3)ccc2N1 |

Reference: ChEMBL document CHEMBL5223189, “Discovery of Selective Aldehyde Dehydrogenase Inhibitors for the Treatment of Cancer” (ACS Med Chem Lett, 2023)
